Source: US20130143804A1, “Islet Amyloid Polypeptide Toxic Oligomer is a Biomarker of Heart or Kidney Failure in Type-2 Diabetes Mellitus” (Trustees of the University of Pennsylvania, priority 2010, published 2013)
Entries after “also recorded” stand apart in the source; their conditions may differ.

Columns and labels:
[1] = system: isolated rat cardiac myocytes; experiment: Calcein leak from isolated rat cardiac myocytes incubated with IAPP oligomers; format: cell-based; settings: incubation for 36 hours
Description: (§1) The level of brain natriuretic peptide (BNP), a molecular marker of hypertrophy, is elevated (by 100±30%) in hearts from pre-diabetic HIP rats vs. age-matched control littermates and further increased with diabetes development (FIG. 12B). […] In contrast, the BNP level is not altered in pre-diabetic UCD-T2DM rats and only increases after the full development of diabetes (FIG. 12B). […] This may indicate that possible pores created in the sarcolemma may be smaller in size than the calcein molecule or significant sarcolemmal damage may require a longer time of incubation.

[2] = system: sarcolemma in cardiac myocytes; experiment: Cryo-electron microscopy of cardiac myocytes incubated with IAPP oligomers; format: cell-based; settings: 50 μM IAPP oligomers for 36 hours
Method: FIG. 13 illustrates EM images of cardiac myocytes. Control (A-B) vs. incubated with 50 μM IAPP oligomers for 36 hours (C-H).
as §1

[3] = system: sarcolemma of cardiac myocytes; experiment: Atomic force microscopy of sarcolemma defect depths on cardiac myocytes; format: cell-based; settings: cardiac myocytes incubated with IAPP oligomers
Description: FIG. 16 illustrates distribution of sarcolemma defect depths derived from AFM data.
(§2) Oligomerization of Aβ peptides is associated with Alzheimer's disease, and Aβ and IAPP have the same molecular weight sizes and are about 40% identical at the amino acid level.

[4] = system: isolated rat cardiac myocytes; settings: external human IAPP; Bell et al. 1995; cited from earlier work
rat cardiac myocytes = experiment: Ca2+ transients in isolated rat cardiac myocytes incubated with exogenous IAPP, field stimulation; format: cell-based
Method: FIG. 8 illustrates that exogenous IAPP oligomers increase Ca^2+ transient amplitude in isolated rat cardiac myocytes.(A) Representative experiments in a control (top panel) myocyte and a cell pre-incubated with 50 μM hIAPP (bottom panel). (B-C) Effect of rat (B) and human (C) IAPP on Ca^2+ transient amplitude. […] For each group, measurements were done on ≧6 myocytes from 3 different rats.
Rat cardiac myocytes were incubated with exogenous human (amyloidogenic) and rat (non-amyloidogenic) IAPP and measured Ca2+ transients produced by field-stimulation at various frequencies (FIG. 8A).
as §2

[5] = Oligomer formation controls, dot blot with A-11 oligomer-specific antibody; format: physicochemical; settings: 50 μM recombinant protein incubated at room temperature for 24 hours
Description: Dot blots with the A-11 antibody, which is specific for toxic oligomers, show the presence of toxic oligomers amyloidogenic entities within the heart in patients with overweight/obesity (OW/OB) and diabetes (DM) (FIG. 4). Non-failing (NF) hearts from lean (L), L-NF group (control), lack toxic oligomers. The percentage of strong A-11 immunoreactivity signals (darker dots) is somewhat larger in hearts from the patients with diabetes, which also correlates with the western blot analysis indicating rich accumulation of IAPP entities with molecular weights greater than ˜16 kDa in these hearts. Apparently, IAPP oligomers are equally present in both ischemic (ICM) and non-ischemic (DCM) hearts (FIG. 4). […] Dots on the upper, right side corner show positive (human IAPP) and negative (rat IAPP) controls for oligomer formation (50 μM recombinant protein incubated at room temperature for 24 hours) (FIG. 4). Before the test with A-11 antibody, all protein homogenate samples were incubated with Protein A-coated magnetic beads to extract IgG, a possible source of cross-reactivity.

[6] = 50 μM IAPP, all stimulation frequencies

Substance | calcein leak from the cytoplasm [1] | structural modification of the sarcolemma (EM) [2] | sarcolemma thinning (density of thin patches, AFM) [3] | hypertrophy induction [4] | Ca2+ transient amplitude (rat cardiac myocytes; 5 μM IAPP, monomeric form) | Ca2+ transient amplitude (rat cardiac myocytes; [6]) | Ca2+ transient amplitude (rat cardiac myocytes; 50 μM IAPP, all stimulation frequencies, listed as Human IAPP) | oligomer formation (A-11 dot blot control) [5]
IAPP oligomers: exogenous oligomers that human IAPP rapidly forms at 50 μM (KCNTATCATQLANFLVHSSNNFGAILSSTNVGSNTY) | does not reveal release of calcein; also recorded: does not induce significant calcein leak | significant structural modification of the sarcolemma | induce sarcolemma thinning; also recorded: Density of thin sarcolemma patches is higher |  |  |  |  | 
human IAPP: human islet amyloid polypeptide, amyloidogenic, SEQ ID NO: 1 KCNTATCATQRLANFLVHSSNNFGAILSSTNVGSNTY (KCNTATCATQLANFLVHSSNNFGAILSSTNVGSNTY; listed as Homo sapiens) |  |  |  | induces hyperthrophy | modest increase | marked rise | significantly increased | positive
rat IAPP: rat islet amyloid polypeptide, non-amyloidogenic, SEQ ID NO: 2 KCNTATCATQRLANFLVRSSNNLGPVLPPTNVGSNTY (KCNTATCATQLANFLVRSSNNLGPVLPPTNVGSNTY; listed as Mus musculus) |  |  |  |  | modest increase | modest, not significant effect; also recorded: no further effect |  | negative
